Source: US20210388002A1, “DIMETHOXYBENZENE COMPOUND ANALOGS, METHODS FOR ANALYZING SAID COMPOUNDS AND STANDARD PRODUCTS OF SAID COMPOUNDS” (TAIHO PHARMACEUTICAL CO., LTD., priority 2018, published 2021)

Assay: solubility in water and organic solvents
Format: physicochemical
Conditions: free form; water, highly water-soluble organic solvents, highly fat-soluble organic solvents

In the case of `COc1cc(C#Cc2nn([C@H]3CCNC3)c3ncnc(N)c23)cc(OC)c1` [Compound B, (S)-3-((3,5-dimethoxyphenyl)ethynyl)-1-(pyrrolidin-3-yl)-1H-pyrazolo[3,4-d]pyrimidin-4-amine], the solubility is reported as “easily soluble”.
